From patent US8691859B2 (priority 2005, dated 2014)
In brackets after ≈: the same amount, converted by molar mass.

How the values were obtained:
[1] = system: B. anthracis GFP sterne spores; test: microbe, parasite or virus in culture; format: cell-based; settings: for MIC: Bacillus anthracis, read-out: MIC B. anthracis spores
[2] = system: B. anthracis GFP sterne vegetative cells; test: microbe, parasite or virus in culture; format: cell-based; settings: Bacillus anthracis, read-out: MIC B. anthracis vegetative cells
anthrax lethal factor = anthrax lethal factor (Bacillus anthracis, UniProt P15917); format: biochemical
anthrax lethal factor, sequence (P15917 34-809 limits assumed): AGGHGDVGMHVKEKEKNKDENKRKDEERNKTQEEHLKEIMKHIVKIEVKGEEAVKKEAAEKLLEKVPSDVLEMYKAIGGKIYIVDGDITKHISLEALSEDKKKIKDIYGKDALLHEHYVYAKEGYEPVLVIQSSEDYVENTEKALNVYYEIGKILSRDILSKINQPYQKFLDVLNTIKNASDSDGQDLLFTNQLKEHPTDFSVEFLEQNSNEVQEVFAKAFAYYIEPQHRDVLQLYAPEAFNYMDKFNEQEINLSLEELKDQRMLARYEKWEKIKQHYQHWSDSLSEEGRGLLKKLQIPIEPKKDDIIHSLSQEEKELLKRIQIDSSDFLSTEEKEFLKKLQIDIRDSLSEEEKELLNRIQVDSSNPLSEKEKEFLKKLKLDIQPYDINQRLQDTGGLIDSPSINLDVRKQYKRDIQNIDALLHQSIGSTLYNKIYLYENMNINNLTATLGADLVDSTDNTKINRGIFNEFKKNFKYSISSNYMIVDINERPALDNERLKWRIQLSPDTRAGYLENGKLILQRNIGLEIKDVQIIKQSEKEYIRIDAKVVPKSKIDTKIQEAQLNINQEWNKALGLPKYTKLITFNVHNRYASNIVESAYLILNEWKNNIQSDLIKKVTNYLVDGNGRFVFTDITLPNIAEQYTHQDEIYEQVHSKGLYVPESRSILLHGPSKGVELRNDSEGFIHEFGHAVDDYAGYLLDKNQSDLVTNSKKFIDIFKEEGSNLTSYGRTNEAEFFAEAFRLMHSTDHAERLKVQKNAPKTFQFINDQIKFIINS

SMILES	MIC [1] [µg/mL]	MIC [2] [µg/mL]	inhibition of the protease activity of anthrax lethal factor (anthrax lethal factor)	MIC B. anthracis spores [1] [µg/mL]
Cc1c(/C=C/c2oc3ccc(C(=N)N)cc3c2C)oc2ccc(C(=N)N)cc12 [NSC 266474, 2-[(E)-2-(5-carbamimidoyl-3-methyl-benzofuran-2-yl)ethenyl]-3-methyl-benzofuran-5-carboximidamide]	> 17.8	> 17.8	inhibit	–
C/C(=C\c1cc2cc(C(=N)N)ccc2o1)c1cc2cc(C(=N)N)ccc2o1 [NSC 266476, 2-[(E)-1-(5-carbamimidoylbenzofuran-2-yl)prop-1-en-2-yl]benzofuran-5-carboximidamide]	> 17.2	> 17.2	inhibit	–
N=C(N)c1ccc2[nH]c(/C=C/c3cc4cc(C(=N)N)ccc4o3)cc2c1 [NSC 290107, 2-[(E)-2-(5-carbamimidoylbenzofuran-2-yl)ethenyl]-1H-indole-5-carboximidamide]	8.32 (≈ 24.2 µM)	> 16.6	inhibit	–
C(=C\c1cc2cc(C3=NCCN3)ccc2o1)/c1cc2cc(C3=NCCN3)ccc2[nH]1 [NSC 290108, 5-(4,5-dihydro-1H-imidazol-2-yl)-2-[(E)-2-[5-(4,5-dihydro-1H-imidazol-2-yl)benzofuran-2-yl]ethenyl]-1H-indole]	18.5 (≈ 46.7 µM)	> 18.5	inhibit	–
N=C(N)c1ccc2oc(CCc3cc4ccc(C(=N)N)cc4[nH]3)cc2c1 [NSC 290109, 2-[2-(5-carbamimidoylbenzofuran-2-yl)ethyl]-1H-indole-6-carboximidamide]	8.36 (≈ 24.2 µM)	8.36 (≈ 24.2 µM)	inhibit	–
N=C(N)c1ccc2cc(/C=C/c3cc4ccc(C(=N)N)cc4o3)[nH]c2c1 [NSC 294200, 2-[(E)-2-(6-carbamimidoylbenzofuran-2-yl)ethenyl]-1H-indole-6-carboximidamide]	2.08 (≈ 6.06 µM)	4.16 (≈ 12.1 µM)	inhibit	–
C(=C\c1cc2ccc(C3=NCCN3)cc2o1)/c1cc2ccc(C3=NCCN3)cc2[nH]1 [NSC 294201, 6-(4,5-dihydro-1H-imidazol-2-yl)-2-[(E)-2-[6-(4,5-dihydro-1H-imidazol-2-yl)benzofuran-2-yl]ethenyl]-1H-indole]	4.68 (≈ 11.8 µM)	18.7 (≈ 47.3 µM)	inhibit	–
N=C(N)c1ccc2[nH]c(/C=C/c3cc4ccc(C(=N)N)cc4o3)cc2c1 [NSC 294203, 2-[(E)-2-(6-carbamimidoylbenzofuran-2-yl)ethenyl]-1H-indole-5-carboximidamide]	16.6 (≈ 48.5 µM)	> 16.6	inhibit	–
C(=C\c1cc2ccc(C3=NCCN3)cc2o1)/c1cc2cc(C3=NCCN3)ccc2[nH]1 [NSC 294204, 5-(4,5-dihydro-1H-imidazol-2-yl)-2-[(E)-2-[6-(4,5-dihydro-1H-imidazol-2-yl)benzofuran-2-yl]ethenyl]-1H-indole]	18.7 (≈ 47.3 µM)	> 18.7	inhibit	–
O=C(Nc1ccc(C2=NCCN2)cc1)c1cc2ccc(C3=NCCN3)cc2[nH]1 [NSC 294206, 6-(4,5-dihydro-1H-imidazol-2-yl)-N-[4-(4,5-dihydro-1H-imidazol-2-yl)phenyl]-1H-indole-2-carboxamide]	8.9 (≈ 23.9 µM)	17.8 (≈ 47.8 µM)	inhibit	–
N=C(N)c1ccc2oc(/C=C/C=C/c3cc4cc(C(=N)N)ccc4o3)cc2c1 [NSC 300511, 2-[(1E,3E)-4-(5-carbamimidoylbenzofuran-2-yl)buta-1,3-dienyl]benzofuran-5-carboximidamide]	2.21 (≈ 5.98 µM)	17.7 (≈ 47.8 µM)	inhibit	–
C(/C=C/c1cc2cc(C3=NCCN3)ccc2o1)=C\c1cc2cc(C3=NCCN3)ccc2o1 [NSC 308571, 2-[2-[(1E,3E)-4-[5-(4,5-dihydro-1H-imidazol-2-yl)benzofuran-2-yl]buta-1,3-dienyl]benzofuran-5-yl]-4,5-dihydro-1H-imidazole]	9.9 (≈ 23.4 µM)	19.8 (≈ 46.9 µM)	inhibit	–
N=C(N)c1ccc(/C=C/C=C/c2cc3cc(C(=N)N)ccc3o2)cc1 [NSC 308572, 2-[(1E,3E)-4-(4-carbamimidoylphenyl)buta-1,3-dienyl]benzofuran-5-carboximidamide]	8.06 (≈ 24.4 µM)	16.1 (≈ 48.8 µM)	inhibit	–
N=C(N)c1ccc(/C=C/c2cc3cc(C(=N)N)ccc3[nH]2)cc1 [NSC 317884, 2-[(E)-2-(4-carbamimidoylphenyl)ethenyl]-1H-indole-5-carboximidamide]	15 (≈ 49.6 µM)	> 15	inhibit	–
C(=C\c1cc2cc(C3=NCCN3)ccc2[nH]1)/c1ccc(C2=NCCN2)cc1 [NSC 317885, 5-(4,5-dihydro-1H-imidazol-2-yl)-2-[(E)-2-[4-(4,5-dihydro-1H-imidazol-2-yl)phenyl]ethenyl]-1H-indole]	> 17.1	> 17.1	inhibit	–
N=C(N)c1ccc(/C=C/c2cc3ccc(C(=N)N)cc3[nH]2)cc1 [NSC 317886, 2-[(E)-2-(4-carbamimidoylphenyl)ethenyl]-1H-indole-6-carboximidamide]	7.52 (≈ 24.8 µM)	15 (≈ 49.5 µM)	inhibit	–
C(=C\c1cc2ccc(C3=NCCN3)cc2[nH]1)/c1ccc(C2=NCCN2)cc1 [NSC 317887, 6-(4,5-dihydro-1H-imidazol-2-yl)-2-[(E)-2-[4-(4,5-dihydro-1H-imidazol-2-yl)phenyl]ethenyl]-1H-indole]	8.56 (≈ 24.1 µM)	> 17.1	inhibit	–
C(=C\c1cc2ccc(C3=NCCN3)cc2[nH]1)/c1ccc2cc(C3=NCCN3)[nH]c2c1 [NSC 341907, 6-(4,5-dihydro-1H-imidazol-2-yl)-2-[(E)-2-[2-(4,5-dihydro-1H-imidazol-2-yl)-1H-indol-6-yl]ethenyl]-1H-indole]	9.34 (≈ 23.7 µM)	18.7 (≈ 47.4 µM)	inhibit	–
c1cc(-c2[nH]c3cc(C4=NCCN4)ccc3c2-c2cc3ccc(C4=NCCN4)cc3[nH]2)ccc1C1=NCCN1 [NSC 341911, 6-(4,5-dihydro-1H-imidazol-2-yl)-3-[6-(4,5-dihydro-1H-imidazol-2-yl)-1H-indol-2-yl]-2-[4-(4,5-dihydro-1H-imidazol-2-yl)phenyl]-1H-indole]	–	24.9 (≈ 48.5 µM)	inhibit	24.88 (≈ 48.5 µM)
